# Assay results published in patent publication US10266482B2, “Long-term memory inducing agent” (NATIONAL UNIVERSITY CORPORATION TOKYO MEDICAL AND DENTAL …, priority 2017, dated 2019).
# System: young mice
# Experiment: Object recognition test (ORT) with young mice
# Format: in vivo, ICR mice
# Experimental: 8-week-old male ICR mice were purchased. Each of the experiment individuals was raised in an individual cage, and adapted to the raising environment for at least a week before use. The rearing room was kept at 22° C. at cycles of 12 hours of light period/12 hours of dark period, and feed and drinking water were given freely. All of the experiments were conducted during the latter 6 hours of the light period.
# N(1)-acetyl-5-methoxykynuramine (AMK) was used as a drug. AMK was diluted with physiological saline. In the administration experiment, a dosage of 0.001 mg-1 mg/3.65 ml/kg bw was intraperitoneally administered.
# For an object recognition test, two each of two types of objects (height 6 cm×diameter 4 cm, height 7 cm×diameter 7 cm) and an observation box (height 30 cm×width 40 cm×depth 30 cm) were used. This test consisted of an acquisition trial and a test trial, and the experimental individuals were allowed to explore in the observation box 5 minutes a day for 3 days immediately before the experiment in order to adapt the experimental individuals to the observation box. In the acquisition trial, two identical objects were presented to the observation box and the experimental individuals were allowed to search for a minute. When the acquisition trials were conducted for more than one time, the acquisition trials were conducted at one-hour intervals. The test trial was conducted 24 hours, or 4 or 7 days after the last acquisition trial. In the test trials, one of the two identical objects presented in the acquisition trials was exchanged with a different object (new object), and the experimental individuals were allowed to search for 5 minutes. During the test trials, the time that took each of the mice to search for the object was measured, and the ratio of the searching time of the two objects (DI value:discrimination index) was calculated according to the following formula to examine the relative cognitive levels to the new object. DI value (%)=Tn×100/(Tf+Tn)
# The object recognition test was a method of evaluating the learning/memory function that utilizes mice's novelty-seeking behavior.
# One-sample t-test was employed to compare the DI value with the expected value (50%). In each experiment, when comparison among individual groups was required, an unpaired t-test was employed for comparing two groups while multiple comparisons including one-way analysis of variance followed by Bonferroni test was conducted for comparing three or more groups.
compound,measurement,setting,value
"COc1ccc(N)c(C(=O)CCNC(C)=O)c1 [Compound 1, N-[3-(2-amino-5-methoxyphenyl)-3-oxopropyl]-acetamide]","long-term memory formation (DI value, test trial 24 hours later)",0.001 mg/kg bw i.p. 15 minutes after single-time acquisition trial,a long-term memory was not formed
same,"long-term memory formation (DI value, test trial 24 hours later)",0.01 mg/kg bw i.p. 15 minutes after single-time acquisition trial,long-term memories were formed
same,"long-term memory formation (DI value, test trial 24 hours later)",0.1 mg/kg bw i.p. 15 minutes after single-time acquisition trial,long-term memories were formed
same,"long-term memory formation (DI value, test trial 24 hours later)",1 mg/kg bw i.p. 15 minutes after single-time acquisition trial,long-term memories were formed
same,duration of induced long-term memory,"1 mg/kg bw i.p. 15 minutes after single-time acquisition trial, test trials 1, 4 and 7 days later",at least 7 days
same,"long-term memory formation (DI value, test trial 24 hours later)","1 mg/kg bw i.p., administered from 60 minutes prior to 120 minutes following single-time acquisition trial",a long-term memory was formed
same,time of administration after the acquisition trial at which long-term memory was still induced,"1 mg/kg bw i.p., single-time acquisition trial",at least 120 minutes
same,administration amount sufficient to form a long-term memory in terms of human (60 kg),converted from 0.01 mg/kg bw in mice,about 0.6 mg
same,administration concentration sufficient to form a long-term memory,i.p. 15 minutes after single-time acquisition trial,0.01 mg/kg bw
